Data taken from patent US6150385A, “1,3,4-thiadiazoles useful for the treatment of CMV infections” (Pharmacia & Upjohn Company, priority 1999, dated 2000).

Target: T1, HCMV polymerase (Human cytomegalovirus, UniProt P08546)
T1 construct: made in house; host or cells: SF-9 insect cells infected with recombinant baculovirus
Test: HCMV polymerase assay (scintillation proximity assay)
Type: biochemical
Settings: percentage of inhibition at 25 μM concentration in CMV polymerase assay
Outline: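 Values are percent inhibition at 25 μM, measured by scintillation proximity after capture of biotinylated poly(dA)-oligo(dT) (6 nM) extended with 90 nM 3H-dTTP. Recombinant SF-9-derived enzyme reacted 30 min at 25 or 37 °C in HEPES pH 7.5/KCl/MgCl2/BSA buffer, ±2 mM CHAPS, before EDTA termination.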

T1 sequence (P08546 whole entry): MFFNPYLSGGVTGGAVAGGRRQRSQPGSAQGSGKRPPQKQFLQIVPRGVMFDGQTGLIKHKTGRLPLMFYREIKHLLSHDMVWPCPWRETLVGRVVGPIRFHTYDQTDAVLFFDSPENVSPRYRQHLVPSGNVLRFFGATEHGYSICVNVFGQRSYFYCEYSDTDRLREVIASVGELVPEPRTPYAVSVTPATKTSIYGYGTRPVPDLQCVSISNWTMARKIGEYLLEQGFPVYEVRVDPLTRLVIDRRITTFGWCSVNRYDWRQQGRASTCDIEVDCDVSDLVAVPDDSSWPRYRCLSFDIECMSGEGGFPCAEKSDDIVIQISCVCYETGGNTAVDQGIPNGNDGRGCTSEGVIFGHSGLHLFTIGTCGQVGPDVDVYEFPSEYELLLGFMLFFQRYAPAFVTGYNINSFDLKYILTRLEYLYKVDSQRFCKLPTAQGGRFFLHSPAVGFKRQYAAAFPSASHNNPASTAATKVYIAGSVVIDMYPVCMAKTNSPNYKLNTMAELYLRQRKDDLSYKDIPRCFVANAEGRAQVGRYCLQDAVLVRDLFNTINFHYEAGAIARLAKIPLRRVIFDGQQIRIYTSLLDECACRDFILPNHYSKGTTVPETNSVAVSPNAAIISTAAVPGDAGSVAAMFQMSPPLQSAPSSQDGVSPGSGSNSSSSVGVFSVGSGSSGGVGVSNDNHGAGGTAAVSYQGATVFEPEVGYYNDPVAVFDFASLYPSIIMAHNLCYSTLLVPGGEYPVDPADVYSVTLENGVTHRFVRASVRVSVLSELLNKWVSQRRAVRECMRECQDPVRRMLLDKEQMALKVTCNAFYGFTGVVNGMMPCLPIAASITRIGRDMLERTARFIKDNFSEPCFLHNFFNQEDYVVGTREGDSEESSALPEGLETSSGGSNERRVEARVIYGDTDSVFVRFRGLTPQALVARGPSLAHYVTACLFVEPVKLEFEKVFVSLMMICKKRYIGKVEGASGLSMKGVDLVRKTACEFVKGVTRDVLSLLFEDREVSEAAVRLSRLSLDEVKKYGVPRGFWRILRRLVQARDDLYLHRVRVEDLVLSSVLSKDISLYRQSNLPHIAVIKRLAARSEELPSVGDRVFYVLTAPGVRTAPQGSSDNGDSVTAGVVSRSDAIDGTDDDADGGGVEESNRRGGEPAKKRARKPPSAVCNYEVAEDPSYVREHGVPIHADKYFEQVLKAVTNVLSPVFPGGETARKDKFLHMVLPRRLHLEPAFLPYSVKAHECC

inhibition at 25 µM [%] | SMILES
26 | COc1ccccc1C(=O)Nc1nnc(NCCNc2ccccc2)s1 [compound 394, N-{5-[(2-anilinoethyl)amino]-1,3,4-thiadiazol-2-yl}-2-methoxybenzamide]
32.4 | O=C(/C=C/c1ccccc1)Nc1nnc(NCc2cccc3ccccc23)s1 [compound 329, (E)-N-{5-[(1-naphthylmethyl)amino]-1,3,4-thiadiazol-2-yl}-3-phenyl-2-propenamide]
29.6 | Cc1ccc(C(=O)Nc2nnc(NCCCCc3ccccc3)s2)cc1 [compound 356, 4-methyl-N-{5-[(4-phenylbutyl)amino]-1,3,4-thiadiazol-2-yl}benzamide]
33.5 | CC1(C)C2CC[C@@H](CNc3nnc(NC(=O)/C=C/c4ccccc4Cl)s3)C1C2 (stereo partly drawn) [compound 320, (E)-3-(2-chlorophenyl)-N-[5-({[(2R)-6,6-dimethylbicyclo[3.1.1]hept-2-yl]methyl}amino)-1,3,4-thiadiazol-2-yl]-2-propenamide]
21.8 | NS(=O)(=O)c1ccc(CCNc2nnc(NC(=O)c3ccc(C(F)(F)F)cc3)s2)cc1 [compound 446, N-(5-{[4-(aminosulfonyl)phenethyl]amino}-1,3,4-thiadiazol-2-yl)-4-(trifluoromethyl)benzamide]
25.9 | Cc1ccc(C(=O)Nc2nnc(NCCCN3CCCC3=O)s2)cc1 [compound 395, 4-methyl-N-(5-{[3-(2-oxo-1-pyrrolidinyl)propyl]amino}-1,3,4-thiadiazol-2-yl)benzamide]
20.8 | O=C(Nc1nnc(NC2CCN(Cc3ccccc3)CC2)s1)c1ccc(Br)cc1 [compound 455, N-{5-[(1-benzyl-4-piperidinyl)amino]-1,3,4-thiadiazol-2-yl}-4-bromobenzamide]
20.6 | CCCCC(CC)CNc1nnc(NC(=O)c2ccc(Cl)c(Cl)c2)s1 (stereo not shown) [compound 461, 3,4-dichloro-N-{5-[(2-ethylhexyl)amino]-1,3,4-thiadiazol-2-yl}benzamide]
35.4 | O=C(Nc1nnc(NCCc2c[nH]c3ccccc23)s1)c1ccc(Cl)c(Cl)c1 [compound 295, 3,4-dichloro-N-(5-{[2-(1H-indol-3-yl)ethyl]amino}-1,3,4-thiadiazol-2-yl)benzamide]
20.8 | O=C(Nc1nnc(NC2CCN(Cc3ccccc3)CC2)s1)c1ccc([N+](=O)[O-])o1 [compound 456, N-{5-[(1-benzyl-4-piperidinyl)amino]-1,3,4-thiadiazol-2-yl}-5-nitro-2-furamide]
27.8 | O=C(Nc1nnc(NCCc2ccccc2)s1)c1c(Cl)cccc1Cl [compound 377, 2,6-dichloro-N-[5-(phenethylamino)-1,3,4-thiadiazol-2-yl]benzamide]
31.3 | O=C(Nc1nnc(NCc2ccco2)s1)c1ccc(I)cc1 [compound 341, N-{5-[(2-furylmethyl)amino]-1,3,4-thiadiazol-2-yl}-4-iodobenzamide]
38.4 | CCOc1ccc2ccccc2c1C(=O)Nc1nnc(NCCc2ccccc2)s1 [compound 270, 2-ethoxy-N-[5-(phenethylamino)-1,3,4-thiadiazol-2-yl]-1-naphthamide]
27.2 | O=C(Nc1nnc(NCC(c2ccccc2)c2ccccc2)s1)c1ccc(Br)cc1 [compound 385, 4-bromo-N-{5-[(2,2-diphenylethyl)amino]-1,3,4-thiadiazol-2-yl}benzamide]
38.1 | O=C(Nc1nnc(NCc2ccc3c(c2)OCO3)s1)c1ccc(Br)cc1 [compound 273, N-{5-[(1,3-benzodioxol-5-ylmethyl)amino]-1,3,4-thiadiazol-2-yl}-4-bromobenzamide]

More lines, now with the values behind:

SMILES | inhibition at 25 µM [%]
O=C(Nc1nnc(NCc2ccc(Cl)c(Cl)c2)s1)c1ccc2c(c1)C(=O)OC2=O [compound 12, N-{5-[(3,4-dichlorobenzyl)amino]-1,3,4-thiadiazol-2-yl}-1,3-dioxo-1,3-dihydro-2-benzofuran-5-carboxamide] | 99.5
O=C(Nc1nnc(NCC(c2ccccc2)c2ccccc2)s1)c1cc(F)cc(F)c1 [compound 188, N-{5-[(2,2-diphenylethyl)amino]-1,3,4-thiadiazol-2-yl}-3,5-difluorobenzamide] | 47.2
CCCCCCCCCCCNc1nnc(NC(=O)c2ccc(I)cc2)s1 [compound 147, 4-iodo-N-[5-(undecylamino)-1,3,4-thiadiazol-2-yl]benzamide] | 54.7
CCOc1ccc2ccccc2c1C(=O)Nc1nnc(NC2CC2)s1 [compound 227, N-[5-(cyclopropylamino)-1,3,4-thiadiazol-2-yl]-2-ethoxy-1-naphthamide] | 42.8
O=C(Nc1nnc(NCc2cccc3ccccc23)s1)c1cc2ccccc2s1 [compound 214, N-{5-[(1-naphthylmethyl)amino]-1,3,4-thiadiazol-2-yl}-1-benzothiophene-2-carboxamide] | 44.1
O=C(/C=C/c1ccccc1Cl)Nc1nnc(NCc2ccc(F)cc2)s1 [compound 67, (E)-3-(2-chlorophenyl)-N-{5-[(4-fluorobenzyl)amino]-1,3,4-thiadiazol-2-yl}-2-propenamide] | 71.7
CCCCCCCC/C=C/CCCCCCCC(=O)Nc1nnc(NCc2ccc3c(c2)OCO3)s1 [compound 53, (E)-N-{5-[(1,3-benzodioxol-5-ylmethyl)amino]-1,3,4-thiadiazol-2-yl}-9-octadecenamide] | 77.9
N#Cc1ccc(C(=O)Nc2nnc(NCCCN3CCCC3=O)s2)cc1 [compound 158, 4-cyano-N-(5-{[3-(2-oxo-1-pyrrolidinyl)propyl]amino}-1,3,4-thiadiazol-2-yl)benzamide] | 52.9
CCCCCCCC/C=C/CCCCCCCC(=O)Nc1nnc(NCCCCCCCCCCC)s1 [compound 51, (E)-N-[5-(undecylamino)-1,3,4-thiadiazol-2-yl]-9-octadecenamide] | 79.5
O=C(Nc1nnc(NCCc2c[nH]c3ccccc23)s1)c1ccc([N+](=O)[O-])o1 [compound 47, N-(5-{[2-(1H-indol-3-yl)ethyl]amino}-1,3,4-thiadiazol-2-yl)-5-nitro-2-furamide] | 81.6
CCOc1ccc2ccccc2c1C(=O)Nc1nnc(NCc2ccc(F)cc2)s1 [compound 71, 2-ethoxy-N-{5-[(4-fluorobenzyl)amino]-1,3,4-thiadiazol-2-yl}-1-naphthamide] | 69.8
O=C(Nc1nnc(NCCc2cccs2)s1)c1c(Cl)cccc1Cl [compound 92, 2,6-dichloro-N-(5-{[2-(2-thienyl)ethyl]amino}-1,3,4-thiadiazol-2-yl)benzamide] | 66.1
O=C(Nc1nnc(NCc2cccs2)s1)c1cc2ccccc2s1 [compound 237, N-{5-[(2-thienylmethyl)amino]-1,3,4-thiadiazol-2-yl}-1-benzothiophene-2-carboxamide] | 41.5
O=C(Nc1nnc(NCc2ccco2)s1)c1c(Cl)cccc1Cl [compound 174, 2,6-dichloro-N-{5-[(2-furylmethyl)amino]-1,3,4-thiadiazol-2-yl}benzamide] | 49.5
CCCCCCCC/C=C/CCCCCCCC(=O)Nc1nnc(NCc2ccc(F)cc2)s1 [compound 48, (E)-N-{5-[(4-fluorobenzyl)amino]-1,3,4-thiadiazol-2-yl}-9-octadecenamide] | 81.5
O=C(Nc1nnc(NC2CCCCCC2)s1)c1cc2ccccc2s1 [compound 256, N-[5-(cycloheptylamino)-1,3,4-thiadiazol-2-yl]-1-benzothiophene-2-carboxamide] | 39.8
O=C(Nc1nnc(NCCCCc2ccccc2)s1)c1ccc(Cl)c(Cl)c1 [compound 168, 3,4-dichloro-N-{5-[(4-phenylbutyl)amino]-1,3,4-thiadiazol-2-yl}benzamide] | 50.8
O=C(Nc1nnc(NCCCN2CCCC2=O)s1)c1cccc([N+](=O)[O-])c1 [compound 135, 3-nitro-N-(5-{[3-(2-oxo-1-pyrrolidinyl)propyl]amino}-1,3,4-thiadiazol-2-yl)benzamide] | 56.6
CCOc1ccc2ccccc2c1C(=O)Nc1nnc(NCc2ccc(S(N)(=O)=O)cc2)s1 [compound 26, N-(5-{[4-(aminosulfonyl)benzyl]amino}-1,3,4-thiadiazol-2-yl)-2-ethoxy-1-naphthamide] | 93.1
CC(C)c1cc(C(C)C)c(C(=O)Nc2nnc(NCCc3c[nH]c4ccccc34)s2)c(C(C)C)c1 [compound 219, N-(5-{[2-(1H-indol-3-yl)ethyl]amino}-1,3,4-thiadiazol-2-yl)-2,4,6-triisopropylbenzamide] | 43.6
CCOc1ccc2ccccc2c1C(=O)Nc1nnc(NC[C@@H]2CCC3CC2C3(C)C)s1 (stereo partly drawn) [compound 261, N-[5-({[(2R)-6,6-dimethylbicyclo[3.1.1]hept-2-yl]methyl}amino)-1,3,4-thiadiazol-2-yl]-2-ethoxy-1-naphthamide] | 39.5
O=C(/C=C/c1ccccc1Cl)Nc1nnc(NC2CCCCCC2)s1 [compound 196, (E)-3-(2-chlorophenyl)-N-[5-(cycloheptylamino) 1,3,4-thiadiazol-2-yl]-2-propenamide] | 46.2
CCCCCCCC/C=C/CCCCCCCC(=O)Nc1nnc(NC2CCC2)s1 [compound 199, (E)-N-[5-(cyclobutylamino)-1,3,4-thiadiazol-2-yl]-9-octadecenamide] | 46
NS(=O)(=O)c1ccc(CCNc2nnc(NC(=O)c3ccc(I)cc3)s2)cc1 [compound 68, N-(5-{[4-(aminosulfonyl)phenthyl]amino}-1,3,4-thiadiazol-2-yl)-4-iodobenzamide] | 71.1
O=C(Nc1nnc(NCC2CCCCC2)s1)c1ccc2c(c1)C(=O)OC2=O [compound 3, N-{5-[(cyclohexylmethyl)amino]-1,3,4-thiadiazol-2-yl}-1,3-dioxo-1,3-dihydro-2-benzofuran-5-carboxamide] | 100
